Reference: patent US20220062281A1, “INHIBITORS TO TARGET HIV-1 NEF-CD80/CD86 IN[…] THERAPEUTIC INTERVENTION” (priority 2018, published 2022)

Tests used:
[1] = molecular target: Nef interaction with CD80 (Human immunodeficiency virus type 1 group M subtype B, UniProt P04601); assay: ELISA primary screen: Nef binding to CD80 cytosolic peptide; design: species or system HIV-1; conditions: CD80 pIC50 value, inhibition of Nef-CD80 binding
Method: (§1) Standard ELISA assay was used to validate the compounds as a primary screen. The basic steps of the assay are outlined in FIG. 1. The cytosolic peptides CD80, CD86 and CD74 are coated on a microplate, while CD80 and CD86 has higher binding capacity with the Nef protein, CD74 is non-specific peptide and is a peptide negative control for Nef binding. The coated plates are incubated overnight at 4° C. The plates were washed 5 times with PBS (0.02% Tween-20) before every step. After washing, the wells were blocked with 5% blotto and incubated at RT with shaking (650 rpm). The plates were washed 5 times with PBS (0.02%-tween20) after every step. Primary antibody […] anti-Nef raised in rabbit dissolved in 2.5% blotto (1:1000) were added and incubated on shaker for 1 hour at RT. Plate was washed and 100 μL anti rabbit raised in donkey dissolved in 2.5% blotto (1:11000) was added and incubated at RT for 45 min. Plate was washed with PBS and TMB substrate solution was added and incubated in dark for 5-10 min. The reaction was stopped with 1N H2SO4 and the absorbance was measured at 450 nm. Positive control (Nef) and Negative control (No peptide with Nef) were analysed for highest binding of Nef with peptide. The absorbance of the plates was measured at 450 nm.
(§2) A throughput screen was performed to pull out the actives. Standard quality control metrics like Z′ were used to qualify plates and Z′ scores were used to identify actives. The IC50 value of the compounds were further determined to evaluate the efficacy of the test compounds.
(§3) The IC50 values of the compounds have been illustrated in Table 1. […] Actives predominantly belong to compounds from Formula I, II and III with IC50s in nano or subnanomolar ranges were selected. Selected compounds were then screened in the cell-based assays systems.

[2] = molecular target: Nef interaction with CD86 (Human immunodeficiency virus type 1 group M subtype B, UniProt P04601); assay: ELISA primary screen: Nef binding to CD86 cytosolic peptide; design: species or system HIV-1
Method: as §1, §2, §3

[3] = tested on: Nef mediated internalization of surface CD80/86 in B/monocyte cells; assay: Cell-based phenotypic screen for downregulation of surface CD80/86 (flow cytometry); conditions: 100 μM, pre-exposed 2 hrs, then infected with non-replicative retrovirus containing NEF; flow cytometry after 48-72 hrs
Text: CD80 and CD86 are two major co-stimulatory cell surface proteins that are present on antigen presenting cells (APCs) and provide a co-stimulatory signal necessary for activation and survival of the naïve T cells. Both these proteins get down regulated during HIV infection via a Nef mediated pathway. It has been speculated that Nef ability to reduce CD80 and CD86 surface expression in infected cells can prevent the activation of naive T cells, necessary for an efficient recognition and elimination of the target cells. FIG. 2 illustrates that in the presence of the compounds of Formula I, Formula II or Formula III, the binding of Nef with CD80 and CD86 is inhibited thus increasing their expression. The increased expression would activate naïve T cells and aid in eliminating the infection.
Briefly monocyte/B cell lines were either delivered with Nef protein or exposed to replication deficient retrovirus and the levels of surface CD80/86 was evaluated by flow cytometry with/without compound treatment. The compounds were qualified based on the ability to reverse the down regulation of CD80/86 caused by the Nef protein. Similar quality checks were used in the secondary screen as in primary screen. Briefly, B/monocyte cells were preexposed to 100 μM of the 4 compounds for 2 hrs and then infected with non-replicative retrovirus containing NEF. The internalization of surface receptors were measured by flow cytometry after optimal infection (48-72 hrs).

[4] = tested on: Nef mediated T cell inactivation; assay: T cell activation assay (IL-2 release, B-cell line co-cultured with T cell line); assay type: cell-based; conditions: 100 μM, B-cell line pre-exposed 1 hr, Nef via protein delivery agent, IL-2 by ELISA after 3 hrs
Text: The appropriate cell system was designed to mimic the biology of the said interactions. FIG. 4(A) represents the principle behind the activation of naïve T cells by the antigen presenting cells (APC), including dendritic cells, B cells, monocytes, macrophages. The activation is based on CD80/86 co-stimulation along with CD3 activation by major histocompatibility complex (MHC) as evidenced by an increase in IL-2 release from the activated T cells.
Representative compounds from the Formula I, II and III were tested in the functional T cell assay and the results are as presented in FIG. 5. B-cell line was pre-exposed to 100 μM of the 4 compounds for 1 hr. The cells were washed and then Nef was introduced via protein delivery agent. The cells were washed again and co-cultured with T cell line. The IL-2 release (as an indicator of activation) was measured by ELISA after 3 hrs. Addition of Nef reduced the T cell activation by more than 50%.

In the case of `O=C(Nc1ccc(Cl)c(Cl)c1)Nc1cc([N+](=O)[O-])ccc1OC(=O)Nc1ccc(Cl)c(Cl)c1` [II4, 2-[3-(3,4-dichlorophenyl)ureido]-4-nitrophenyl (3,4-dichlorophenyl)carbamate], the IC50 [1] is reported as 27.5 pM and the IC50 [2] is reported as 275 pM.

Compound `CN(C)c1ncc(-c2ccccc2)cn1` [Compound I3a, N,N-Dimethyl-5-phenylpyrimidin-2-amine] has an IC50 [1] of 11 pM.

With `Cc1cc(C)n(-c2ncc(-c3ccc([N+](=O)[O-])cc3)cn2)n1` [Compound I1a, 2-(3,5-Dimethyl-1H-pyrazol-1-yl)-5-(4-nitrophenyl)pyrimidine] the IC50 [1] was 2.34 pM.

`O=C(Oc1cccc(-c2nnco2)c1)N(c1ccccc1)c1ccccc1` [II5, 3-[(1,3,4-oxadiazol-2-yl)phenyl]diphenylcarbamate] gave an IC50 [1] of 2.75 pM.

In the case of `O=C(Nc1ccccc1F)Oc1ccc2ccccc2c1` [II3, Naphthalen-2-yl (2-fluorophenyl)carbamate], the IC50 [2] is reported as 12.6 pM, the “reversal of Nef mediated internalization of CD80/86” value (shortened to “reversal … of CD80/86”) [3] is reported as “reversal of Nef mediated internalization of CD80/86” and the “reversal of Nef mediated inactivation of T cells (IL-2 release)” value (shortened to “reversal … (IL-2 release)”) [4] is reported as “reversed the Nef mediated inactivation”.

`CCOC(=O)c1ccc(NC(=O)C(C)(C)Oc2ccc(Cl)cc2)cc1` [III2c, Ethyl 4-[2-(4-chlorophenoxy)-2-methylpropanamido]benzoate] gave an IC50 [1] of 1510 pM.

In the case of `O=C(Oc1ccccc1)n1c(=S)oc2ccccc21` [II1, Phenyl 2-thioxobenzo[d]oxazole-3(2H)-carboxylate], the IC50 [1] is reported as 91.2 pM.

For `CCCOC(=O)c1ccc(NC(=O)COc2cccc(C)c2)cc1` [III1e, Propyl 4-[2-(m-tolyloxy)acetamido]benzoate], the IC50 [1] was 2340 pM.

With `Cc1cc(C)cc(OCC(=O)Nc2ccc(C(=O)O)c(O)c2)c1` [III2a, 4-[2-(3,5-dimethylphenoxy)acetamido]-2-hydroxybenzoic acid] the IC50 [1] was 4.47 pM, the “reversal … of CD80/86” value [3] was “reversal of Nef mediated internalization of CD80/86” and the “reversal … (IL-2 release)” value [4] was “reversed the Nef mediated inactivation”.

With `CC(Oc1ccccc1)C(=O)Nc1ccc(C(=O)O)cc1` (stereo not shown) [III2b, 4-(2-Phenoxypropanamido)benzoic acid] the IC50 [1] was 1120 pM.

`Cc1ccc(OC(=O)Nc2ccc(Cc3ccc(NC(=O)Oc4ccc(C)cc4)cc3)cc2)cc1` [II2d, Di-p-tolyl [methylenebis(4,1-phenylene)]dicarbamate] gave an IC50 [1] of 10500 pM and an IC50 [2] of 513000 pM.

`FC(F)(F)c1ccc(-c2cnc(N3CCOCC3)nc2)cc1` [Compound I3b, 4-[5-(4-(Trifluoromethyl)phenyl)pyrimidin-2-yl]morpholine] was tested, and the IC50 [1] was 129 pM, the IC50 [2] was 1620 pM and the “reversal … of CD80/86” value [3] was “reversal of Nef mediated internalization of CD80/86”. The “reversal … (IL-2 release)” value [4] was “reversed the Nef mediated inactivation”.

`Cc1ccc(S(=O)(=O)NNC(=O)c2ccccc2OC(=O)Nc2ccccc2)cc1` [II7, 2-[(2-Tosylhydrazine-1-carbonyl)phenyl]phenylcarbamate] showed an IC50 [1] of 87.1 pM.
